Columns and labels:
[1] = system: caspase 7; test: RT-PCR of apoptotic genes, caspase 7; assay type: cell-based, human; conditions: 24 h, relative to untreated cells
Description: (§1) We next used reverse transcription polymerase chain reaction (RT-PCR) and Western blot analysis to look at Bax (proapoptotic), Bcl-2 (antiapoptotic) and caspase 7 (executioner caspase) expression at gene and protein level as an additional marker of apoptosis occurrence. In fact, apoptotic cell death is mostly directed by the levels of Bcl-2 family, whether they are pro-apoptotic or antiapoptotic and targeting these molecules as a therapeutic strategy is continuously under development. As predicted, we observed an upregulation in the expression of Bax in MCF-7 treated cells to (1.7-, 2- and 2.4-fold) with compound 4d and to (1.2-, 1.4- and 1.6-fold) with compound 4f at (1.25, 2.5 and 5 µM) respectively (Figure 6). […] This shifting in Bax to Bcl-2 ratio usually started caspases activation which plays a critical role in apoptosis execution. Among all caspases, caspase 7 is considered as one of the most crucial executioner caspases that mediate cell death, and its expression strongly correlates with apoptosis stimulation.
(§2) The MCF-7 cells (0.1 × 10^6) in 12 well plates were treated with different concentrations of compounds 4d and 4f for 24 h and untreated cells were used as a control. After 24 h of treatment, cell culture media was removed and the cells were lysed with Trizol (Invitrogen, Waltham, MA, USA), and total RNA was extracted from all the samples [42]. The RNA was estimated by Nano-drop and 1 µg of RNA was used in the cDNA synthesis. The cDNA was synthesized from RNA by using a cDNA synthesis kit (Invitrogen, Thermo Fisher Scientific, lnc., Waltham, MA, USA) according to the manufacturer’s instruction. After Reverse transcription at 42 °C for 60 min, RT-PCR was performed using 5× Firepol Master Mix ready to load (Solis BioDyne) according to manufacturer’s instruction. RT-PCR was used to analyze the gene expression level of P53, Bcl2, Bax and caspase 7 using specific sets of primers for each gene, while β-actin was utilized as a housekeeping gene. The program was run as follows, initial denaturation at 95 °C for 5 min; denaturation at 95 °C for 30 s; annealing at 55 °C for 45 s; elongation at 72 °C for 45 s (30 Cycles) and final extension at 72 °C for 10 min. The RT-PCR products were electrophoresed on a 1.2% agarose gel containing ethidium bromide and the gel was imaged on a Licor machine.

[2] = system: HepG2 (liver) cancer cells; test: MTT cell viability assay, HepG2; assay type: cell-based; conditions: Homo sapiens, 48 h, average ± SD (n = 3)
Experimental: (§3) Compounds 4a–n were subjected to the cytotoxicity screening of the cell lines MCF-7 (breast), LoVo (colon), HepG2 (liver) and A549 (lung) carcinoma cells as well as HUVEC normal cell lines. The MTT assay was employed to assess cytotoxicity after 48 h of treatment with different concentrations of each compound and doxorubicin was used as a reference drug. The results were presented in Table 1 as growth inhibitory concentration (IC50 values).
(§4) Cell viability was determined using 3-(4,5-dimethylthiazol-2-yl)-2,5-diphenyl tetrazolium bromide (MTT) assay as stated previously. In brief, A549 (lung), HepG2 (liver), LoVo (colon), MCF-7 (breast) cancer cells as well as normal cells (HUVEC) were seeded in 96-well plates (10^5 per well) and compounds were added in a different final concentration. All cells were treated for 48 h, and then 10μL of MTT reagent (5 mg/mL) was added to each well and further incubated for 4 h. Thereafter, 0.1 mL of acidified isopropanol was added to solubilize formazan product and the developed color was measured at 570 nm in Microplate ELISA Reader (BioTek, Elx-800, Winooski, VT, USA). The IC50 values (concentration required for 50% inhibition of cell viability) were calculated using dose response curve. Cell viability was calculated as = (Ab Treated/Ab Control) × 100.
(§5) The A549, HepG2, LoVo and MCF-7 cancer cell lines were obtained from the German Collection of Microorganisms and Cell Cultures (DSMZ) (Braunschweig, Germany). For Human umbilical vein endothelial cells (HUVEC cells), it was purchased from American Type Culture Collection (16549; Cat no. PCS-100-010; ATTCC, Manassas, VA, USA).

[3] = system: Bax; test: RT-PCR of apoptotic genes, Bax; assay type: cell-based, human; conditions: 24 h, vs control, normalized to β-actin
Description: as §1, §2

[4] = system: HUVEC normal cells; test: MTT cell viability assay, normal HUVEC; assay type: cell-based; conditions: Homo sapiens, 48 h, average ± SD (n = 3)
Experimental: as §3, §4, §5

[5] = system: Bcl-2; test: RT-PCR of apoptotic genes, Bcl-2; assay type: cell-based, human; conditions: 24 h, vs DMSO-vehicle treated cells
Description: as §1, §2

[6] = system: MCF-7 cells; test: Cell cycle analysis by PI staining and flow cytometry; assay type: cell-based, human; conditions: 24 h, mean ± SD, control 57.91 ± 0.61%
Experimental: Indeed, designing of new chemotherapeutic drugs targeting cell cycle progression and apoptosis is considered as an attractive strategy. To explore the antiproliferative effect of compounds 4d and 4f, cell-cycle analysis was performed in MCF-7 cells were examined. The cells were treated with various concentrations of both compound for 24 h, stained with propidium iodide (PI) and analyzed by flow cytometry. As shown in (Figure 2), the incubation of MCF-7 cells with (1.25, 2.5, and 5 μM) of compound 4d for 24 h increased the percentage of cells at G1 (from 57.91 ± 0.61% in control) to 62.51 ± 0.14%, 64.95 ± 0.21% and 66.55 ± 0.78% in treated cells, respectively.
Cell cycle distribution was evaluated by PI staining as previously described. Briefly, MCF-7 cells were seeded and incubated for a period of 24 h to allow for attachment. Subsequently, cells were exposed to different concentrations of compounds 4d and 4f. After 24 h, cells were harvested and fixed in 70% ethanol. Thereafter, cells were washed with PBS, resuspended in 1 mL of PBS containing PI (50 μg/mL), RNase A (0.5 mg/mL), sodium citrate (0.1%) and Triton X-100 (0.1%), then incubated for 15 min in the dark at room temperature. Flow cytometry was carried out by a FACS Scan Flow Cytometer (Cytomics FC 500; Beckman Coulter, Brea, CA, USA). The data were analyzed using CXP software V. 3.0.

CCc1cccc(NC(=O)CNS(=O)(=O)c2ccc(-n3c(SCC(=O)Nc4cccc(CC)c4)nc4c(OC)cccc4c3=O)cc2)c1 [Compound 4f, N-(3-ethylphenyl)-2-((3-(4-(N-(2-((3-ethylphenyl)amino)-2-oxoethyl)sulfamoyl)-phe-nyl)-8-methoxy-4-oxo-3,4-dihydroquinazolin-2yl)thio)acetamide]
expression of caspase 7 (RT-PCR) ([1]; MCF-7, 2.5 µM): 1.35 fold | expression of caspase 7 (RT-PCR) ([1]; MCF-7, 5 µM): 1.58 fold | IC50 [2]: 11.7 ± 2 µM | expression of Bax (RT-PCR) ([3]; MCF-7, 1.25 µM): 1.2 fold | expression of Bax (RT-PCR) ([3]; MCF-7, 2.5 µM): 1.4 fold | expression of Bax (RT-PCR) ([3]; MCF-7, 5 µM): 1.6 fold | IC50 [4]: 17.9 ± 0.6 µM | Bcl-2 expression (RT-PCR) ([5]; MCF-7, 1.25 µM): 0.92 fold | Bcl-2 expression (RT-PCR) ([5]; MCF-7, 2.5 µM): 0.68 fold | Bcl-2 expression (RT-PCR) ([5]; MCF-7, 5 µM): 0.62 fold | percentage of cells at G1 ([6]; 1.25 μM): 61.65 ± 0.21% | percentage of cells at G1 ([6]; 2.5 μM): 62.65 ± 0.35% | percentage of cells at G1 ([6]; 5 μM): 65.15 ± 0.36%

COc1cccc2c(=O)n(-c3ccc(S(=O)(=O)NCC(=O)Nc4ccc(C)cc4)cc3)c(SCC(=O)Nc3ccc(C)cc3)nc12 [Compound 4d]
expression of caspase 7 (RT-PCR) ([1]; MCF-7, 2.5 µM): 1.35 fold | expression of caspase 7 (RT-PCR) ([1]; MCF-7, 5 µM): 1.58 fold | IC50 [2]: 9 ± 0.3 µM | expression of Bax (RT-PCR) ([3]; MCF-7, 1.25 µM): 1.7 fold | expression of Bax (RT-PCR) ([3]; MCF-7, 2.5 µM): 2 fold | expression of Bax (RT-PCR) ([3]; MCF-7, 5 µM): 2.4 fold | IC50 [4]: 7.8 ± 0.6 µM | Bcl-2 expression (RT-PCR) ([5]; MCF-7, 1.25 µM): 0.88 fold | Bcl-2 expression (RT-PCR) ([5]; MCF-7, 2.5 µM): 0.68 fold | Bcl-2 expression (RT-PCR) ([5]; MCF-7, 5 µM): 0.49 fold | percentage of cells at G1 ([6]; 1.25 μM): 62.51 ± 0.14% | percentage of cells at G1 ([6]; 2.5 μM): 64.95 ± 0.21% | percentage of cells at G1 ([6]; 5 μM): 66.55 ± 0.78%

— paper PMC8838787, “The Antiproliferative and Apoptotic Effects of a Novel Quinazoline Carrying Substituted-Sulfonamides: In Vitro and Molecular Docking Study” (Molecules, 2022)
